pIC50: −log10 of the molar value. Bounds are passed on as bounds.

Assay in all cases: Fluorimetric PPyrPM assay for group 1B PLA2 inhibition (Example 12)
Holding throughout (type): biochemical

Assay [1] has as its target T1, human group 1B PLA2 (hps PLA2) (Homo sapiens, UniProt P04054).
T1 construct: made in house; host or cells: E. coli
To be noted: human pancreas secreted PLA2; for inhibition at 15 µM: read-out: ILYPSA % inhibition at 15 μM hps PLA2; for pIC50: read-out: ILYPSA IC50 hps PLA2. The source says: (§1) In this example, a fluorimetric assay procedure was used to evaluate the indole and indole-related compounds of the invention as inhibitors of group 1B phospholipase A2 (PLA2) from human, mouse and porcine. A description of this assay is found in articles: Leslie, C C and Gelb, M H (2004) Methods in Molecular Biology “Assaying phospholipase A2 activity”, 284:229-242; Singer, A G, et al. (2002) Journal of Biological Chemistry “Interfacial kinetic and binding properties of the complete set of human and mouse groups I, II, V, X, and XII secreted phospholipases A2”, 277:48535-48549, which are incorporated herein as references.
(§2) In general, this assay used a phosphatidylmethanol substrate with a pyrene fluorophore on the terminal end of the sn-2 fatty acyl chain. Without being bound by theory, close proximity of the pyrenes from neighboring phospholipids in a phospholipid vesicle caused the spectral properties to change relative to that of monomeric pyrene. Bovine serum albumin was present in the aqueous phase and captured the pyrene fatty acid when it is liberated from the glycerol backbone owing to the PLA2-catalyzed reaction. However, a potent inhibitor can inhibit the liberation of pyrene fatty acid from the glycerol backbone. […] The effect of a given inhibitor and inhibitor concentration on human, mouse and porcine phospholipase was determined.
(§3) Recombinant human and mouse group 1B PLA2 were cloned and expressed in E. coli as insoluble inclusion bodies. The inclusion bodies were isolated and purified by sonicating cell pellet in lysis buffer (50 mM Tris-HCl pH 7.0, 250 mM NaCl, 0.5% Triton 100), centrifugation at 12,000×g, and washing three times in washing buffer (20 mM Tris-HCl pH 7.0, 250 mM NaCl, 0.5% Triton 100). Then the inclusion bodies were dissolved in dissolving buffer (50 mM Tris-HCl pH 7.0, 250 mM NaCl, 6 M Guanidine-HCl, 1 mM DTT) and dialyzed four times against 10 volumes of refolding buffer (20 mM Tris-HCl pH 7.0, 250 mM NaCl, 0.5M Guanidine-HCl, 5% (w/w) Glycerol, 2 mM reduced glutathione and 0.4 mM oxidized glutathione) at 4° C. The correctly refolded proteins were concentrated using Amicon Stirred cell under nitrogen pressure (<70 psi) and dialyzed against 10 volumes of 50 mM Tris-HCl pH 7.0, 250 mM NaCl and 5% (w/w) glycerol. Human and mouse group 1B PLA2 were further purified by High S ion exchange and gel filtration columns.
(§4) The following reagents and equipments were obtained from commercial vendors: • 1. Porcine group 1B phospholipase A2 • 2. 1-hexadecanoyl-2-(1-pyrenedecanoyl)-sn-glycero-3-phosphomethanol (PPyrPM) • 3. Bovine serum albumin (BSA, fatty acid free) • 4. 2-Amino-2-(hydroxymethyl)-1,3-propanediol, hydrochloride (Tris-HCl) • 5. Calcium chloride • 6. Potassium chloride • 7. Solvents: DMSO, toluene, isopropanol, ethanol • 8. Molecular Devices SPECTRAmax microplate spectrofluorometer • 9. Costar 96 well black wall/clear bottom plate
(§5) The following reagents were prepared: • 10. PPyrPM stock solution (1 mg/ml) in toluene:isopropanol (1:1) • 11. ILY104 inhibitor stock solution (10 mM) in DMSO • 12. 3% (w/v) bovine serum albumin (BSA) • 13. Stock buffer: 50 mM Tris-HCl, pH 8.0, 50 mM KCl and 1 mM CaCl2
(§6) The following procedure was performed to evaluate the inhibitory potency of the evaluated compounds. • 14. An assay buffer was prepared by adding 3 ml 3% BSA to 47 ml stock buffer. • 15. Solution A was prepared by adding serially diluted inhibitors to the assay buffer. Inhibitors were three-fold diluted in stock buffer in a series of 8 from 15 uM. • 16. Solution B was prepared by adding human, mouse or porcine PLA2 to the assay buffer. This solution was prepared immediately before use to minimize enzyme activity loss. • 17. Solution C was prepared by adding 30 ul PPyrPM stock solution to 90 ul ethanol, and then all 120 ul of PPyrPM solution was transferred drop-wise over approximately 1 min to the continuously stirring 8.82 ml assay buffer to form a final concentration of 4.2 uM PPyrPM vesicle solution. • 18. […]

Assay [2] addresses T2, mouse group 1B PLA2 (mps PLA2) (Mus musculus, UniProt Q9Z0Y2).
T2 construct: made in house; host or cells: E. coli
Particulars: mouse pancreas secreted PLA2; for inhibition at 15 µM: read-out: ILYPSA % inhibition at 15 μM mps PLA2; for pIC50: read-out: ILYPSA IC50 mps PLA2.
Source text: as §1, §2, §3, §4, §5, §6

Assay [3] concerns the target T3, porcine group 1B PLA2 (pps PLA2) (Sus scrofa, UniProt P00592).
T3 construct: purchased
To be noted: porcine pancreas secreted PLA2; for pIC50: read-out: ILYPSA IC50 pps PLA2.
Source text: as §1, §2, §4, §5
The following procedure was performed to evaluate the inhibitory potency of the evaluated compounds. • 14. An assay buffer was prepared by adding 3 ml 3% BSA to 47 ml stock buffer. • 15. Solution A was prepared by adding serially diluted inhibitors to the assay buffer. Inhibitors were three-fold diluted in stock buffer in a series of 8 from 15 uM. • 16. Solution B was prepared by adding human, mouse or porcine PLA2 to the assay buffer. This solution was prepared immediately before use to minimize enzyme activity loss. • 17. Solution C was prepared by adding 30 ul PPyrPM stock solution to 90 ul ethanol, and then all 120 ul of PPyrPM solution was transferred drop-wise over approximately 1 min to the continuously stirring 8.82 ml assay buffer to form a final concentration of 4.2 uM PPyrPM vesicle solution. • 18. The SPECTRAmax microplate spectrofluorometer was set at 37° C. • 19. 100 ul of solution A was added to each inhibition assay well of a costar 96 well black wall/clear bottom plate • 20. 100 ul of solution B was added to each inhibition assay well of a costar 96 well black wall/clear bottom plate. • 21. 100 ul of solution C was added to each inhibition assay well of a costar 96 well black wall/clear bottom plate. • 22. The plate was incubated inside the spectrofluorometer chamber for 3 min. • 23. The fluorescence was read using an excitation of 342 nm and an emission of 395 nm.
Evaluated compounds were tested in duplicate and their values were averaged to plot the inhibition curve and calculate the IC50. Compared to uninhibited controls, lower fluorescent signal at an emission of 395 nm in test reactions evidenced inhibition of PLA2. […] Compounds initially found to be active were repeated to confirm their inhibitory activity. […]

T2 sequence (Q9Z0Y2 23-146): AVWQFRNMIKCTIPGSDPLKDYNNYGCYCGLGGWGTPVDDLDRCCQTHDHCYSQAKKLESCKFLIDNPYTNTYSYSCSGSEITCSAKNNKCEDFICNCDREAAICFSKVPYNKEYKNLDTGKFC
T1 sequence (P04054 23-148): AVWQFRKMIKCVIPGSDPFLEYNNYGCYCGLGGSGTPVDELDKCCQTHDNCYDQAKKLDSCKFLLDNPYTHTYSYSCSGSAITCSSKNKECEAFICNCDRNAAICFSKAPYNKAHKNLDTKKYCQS
T3 sequence (P00592 23-146): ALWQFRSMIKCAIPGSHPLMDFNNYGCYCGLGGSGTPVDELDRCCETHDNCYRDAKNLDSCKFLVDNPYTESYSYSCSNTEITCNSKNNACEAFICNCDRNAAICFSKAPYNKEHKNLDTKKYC

`Cc1c(C(=O)C(N)=O)c2c(OC(C(=O)O)C(=O)O)cccc2n1Cc1ccccc1` [ILY-IV-8, 2-(3-Aminoooxalyl-1-benzyl-2-methyl-1H-indol-4-yloxy)-malonic acid]: the inhibition at 15 µM in assay [1] worked out at 41%; in assay [2], 61.2%. Also, the pIC50 in assay [3] was 5.65.
Turning to `Cc1c(C(=O)C(N)=O)c2c(OCC(=O)O)cccc2n1CCCCCCCCCCCCOc1ccc(-c2ccc(OCCCCCCCCCCCCn3c(C)c(C(=O)C(N)=O)c4c(OCC(=O)O)cccc43)cc2)cc1` [ILY-V-36, [3-Aminooxalyl-1-(12-{4′-[12-(3-aminooxalyl-4-carboxymethoxy-2-methyl-indol-1-yl)-dodecyloxy]-biphenyl-4-yloxy}-dodecyl)-2-methyl-1H-indol-4-yloxy]-acetic acid], the negative-log IC50 (pIC50) is 5.90 in assay [1], 6.04 in assay [2] and 6.36 in assay [3].
Turning to `Cc1c(C(=O)C(N)=O)c2c(OCC(=O)O)cccc2n1CCCCCCCCCCCCSCCCCSCCCCCCCCCCCCn1c(C)c(C(=O)C(N)=O)c2c(OCC(=O)O)cccc21` [ILY-V-25, 2,2′-(1,1′-(12,12′-(Butane-1,4-diylbis(sulfanediyl))bis(dodecane-12,1-diyl))bis(3-(2-amino-2-oxoacetyl)-2-methyl-1H-indole-4,1-diyl))bis(oxy)diacetic acid], the figures for the pIC50 in assay [1], in assay [2] and in assay [3] were 6.82, 6.46 and 6.72, respectively.
In the case of `Cc1c(C(=O)C(N)=O)c2c(OCC(=O)O)cccc2n1CCCCCCCCCCCCOc1ccccc1OCCCCCCCCCCCCn1c(C)c(C(=O)C(N)=O)c2c(OCC(=O)O)cccc21` [ILY-V-27, [3-Aminooxalyl-1-(12-{2-[12-(3-aminooxalyl-4-carboxymethoxy-2-methyl-indol-1-yl)-dodecyloxy]-phenoxy}-dodecyl)-2-methyl-1H-indol-4-yloxy]-acetic acid], the negative logarithm of the IC50 (pIC50) was 6.82 in assay [1], 6.70 in assay [2] and 6.82 in assay [3].
As for `Cc1c(C(=O)C(N)=O)c2c(OCC(=O)O)ccc(Br)c2n1Cc1ccccc1` [ILY-IV-9, (3-Aminooxalyl-1-benzyl-7-bromo-2-methyl-1H-indol-4-yloxy)-acetic acid], the pIC50 in assay [1] is 6.27; in assay [2], 6.44; in assay [3], 7.40.
Consider `Cc1c(C(=O)C(N)=O)c2c(OCC(=O)NC(CC(=O)O)C(=O)O)nccc2n1Cc1ccccc1` (stereo not drawn) [ILY-II-12, 2-(2-(3-(2-amino-2-oxoacetyl)-1-benzyl-2-methyl-1H-pyrrolo[3,2-c]pyridin-4-yloxy)acetamido)succinic acid], for which the inhibition at 15 µM in assay [1] came to 16.6%; in assay [2], 35.7%. For the same compound, the pIC50 in assay [3] was 5.43.
As for `Cc1c(C(=O)C(N)=O)c2c(OCC(=O)O)ccc([N+](=O)[O-])c2n1Cc1ccccc1` [ILY-IV-29], the negative logarithm of the IC50 (pIC50) is 5.89 in assay [1], 6.48 in assay [2] and 7.70 in assay [3].
As to `Cc1c(C(=O)C(N)=O)c2c(OC(CC(C)C)C(=O)O)cccc2n1Cc1ccccc1` (stereo not drawn) [ILY-IV-47, 2-(3-Aminooxalyl-1-benzyl-2-methyl-1H-indol-4-yloxy)-4-methyl-pentanoic acid], the pIC50 in assay [1] was 5.53; in assay [2], 5.61; in assay [3] it was 7.70.
`COC(=O)C(Oc1cccc2c1c(C(=O)C(N)=O)c(C)n2Cc1ccccc1)C(=O)O` (stereo not drawn) [ILY-IV-59]: the inhibition at 15 µM in assay [1] is 10.2%; in assay [2], 35.7%; in assay [3] (read-out: ILYPSA % inhibition at 15 μM pps PLA2, 15 μM), 56.8%.
Regarding `CCCCCCCCn1c(C)c(C(=O)C(N)=O)c2c(OCC(=O)O)cccc21` [ILY-V-2], the pIC50 in assay [1] is 6.19; in assay [2] it was 6.68; in assay [3], 7.52.
Taken in the same sequence, the figures for `Cc1c(C(=O)C(N)=O)c2c(OCC(=O)O)ccnc2n1Cc1ccccc1` [ILY-VII-1, 2-(1-Benzyl-4-yloxyacetic acid-2-methyl-1H-pyrrolo[2,3-b]pyridin-3-yl)-2-oxoacetamide] were 4.86, 5.67 and 7.22.
As for `Cc1c(C(=O)C(N)=O)c2c(OCC(=O)NS(C)(=O)=O)cccc2n1Cc1ccccc1` [ILY-IV-21, 1-Benzyl-2-methyl-4-methanesulfonamidoylmethyloxy-1H-indol-3-glyoxylamide], the figures for the pIC50 in assay [1], in assay [2] and in assay [3] were 5.94, 6.49 and over 7.70, respectively.
Take `Cc1c(C(=O)C(N)=O)c2c(OCC(=O)O)cccc2n1CCCCCCCCCCCCN(CCCCCCCCCCCCn1c(C)c(C(=O)C(N)=O)c2c(OCC(=O)O)cccc21)Cc1ccccc1` [ILY-V-31, 2,2′-(1,1′-(12,12′-(benzylazanediyl)bis(dodecane-12,1-diyl))bis(3-(2-amino-2-oxoacetyl)-2-methyl-1H-indole-4,1-diyl))bis(oxy)diacetic acid]: the results for the pIC50 in assay [1], in assay [2] and in assay [3] were 7.00, 7.52 and 7.70, respectively.
Taken in the same sequence, the figures for `Cc1c(C(=O)C(N)=O)c2c(OCC(=O)O)cccc2n1CCCCCCCCSCCCCSCCCCCCCCn1c(C)c(C(=O)C(N)=O)c2c(OCC(=O)O)cccc21` [ILY-V-23, 2,2′-(1,1′-(8,8′-(butane-1,4-diylbis(sulfanediyl))bis(octane-8,1-diyl))bis(3-(2-amino-2-oxoacetyl)-2-methyl-1H-indole-4,1-diyl))bis(oxy)diacetic acid] were 5.67, 6.26 and 5.95.
With `CCCCCCCCn1c(C)c(C(=O)C(N)=O)c2c(OCC(=O)O)nccc21` [ILY-II-8, (3-Aminooxalyl-2-methyl-1-octyl-1H-pyrrolo[3,2-c]pyridin-4-yloxy)-acetic acid], the figures for the pIC50 in assay [1], in assay [2] and in assay [3] were 6.57, 6.92 and 7.10, respectively.

For the origin of these results see patent US20070135383A1, “Phospholipase inhibitors, including multi-valent phospholipase inhibitors, and use thereof, including as lumen-localized phospholipase inhibitors” (priority 2005, published 2007).
